Experimental data: patent US10047069B2, “Compositions comprising an inhibitor of lysine specific demethylase-1” (Celgene Quanticel Research, Inc., priority 2015, dated 2018)
≈ marks a conversion by molar mass, not a printed value.

Legend:
Assay type in all cases: physicochemical
[1] = Thermal stability from onset of DSC events; conditions: onsets of DSC events greater than 200° C.
Procedure: DSC data were collected on a Mettler DSC 823E equipped with a 34 position auto-sampler. The instrument was calibrated for energy and temperature using certified indium. Typically, 0.9-6 mg of each sample, in a pin-holed aluminum pan, was heated at 10° C./min from 25° C. to 350° C. A nitrogen purge at 50 ml/min was maintained over the sample. The instrument control and data analysis software was STARe v12.1.
The twenty remaining forms have thermal events occurring from as low as ˜30° C. These may be solvated/hydrated forms.

[2] = Salt screen assessment compared to the HCl salt
Procedure: (§1) Representative samples for the twenty-six forms were further analysed by NMR/IC and DSC. The stability of the samples after storage at 40° C./75% RH was also assessed by XRPD. Solubility in FeSSIF media was determined for selected samples. […] IC was employed to determine the molar equivalence for inorganic counterions, sulphate and phosphate.

[3] = Thermodynamic solubility in FeSSIF; conditions: for Solubility in FeSSiF / solubility at 24 h: fed state simulated intestinal fluid (FeSSIF), equilibrated at 25° C. for 24 hours; for XRPD of residue: residue of the FeSSIF solubility test, analysed by XRPD as a damp solid
Procedure: Solubility was determined by suspending sufficient compound in fed state simulated intestinal fluid (FeSSIF) to give a maximum final concentration of >3 mg/ml of the parent free-form of the compound. The suspension was equilibrated at 25° C. for 24 hours then the pH was measured. The suspension was then filtered through a glass fibre C filter. The residue was analysed by XRPD as a damp solid. The filtrate was diluted by an appropriate factor prior to analysis by HPLC. Quantitation by HPLC was performed with reference to a standard solution of approximately 0.2 mg/ml in DMSO. Different volumes of the standard, diluted and undiluted sample solutions were injected. The solubility was calculated using the peak areas determined by integration of the peak found at the same retention time as the principal peak in the standard injection. Analysis was performed on an Agilent HP1100 series system equipped with a diode array detector and using ChemStation software vB.04.03.

[4] = Stability post-storage at 40° C./75% RH assessed by XRPD; conditions: for Stability post-storage at 40° C./75% RH: form change assessed by XRPD
Procedure: as §1

[5] = Gravimetric vapor sorption (GVS); conditions: 25° C.
Procedure: Sorption isotherms were obtained using a SMS DVS Intrinsic moisture sorption analyzer, controlled by DVS Intrinsic Control software v1.0.1.2 (or v 1.0.1.3). The sample temperature was maintained at 25° C. by the instrument controls. The humidity was controlled by mixing streams of dry and wet nitrogen, with a total flow rate of 200 ml/min. The relative humidity was measured by a calibrated Rotronic probe (dynamic range of 1.0-100% RH), located near the sample. The weight change, (mass relaxation) of the sample as a function of % RH was constantly monitored by the microbalance (accuracy±0.005 mg). Approximately 13 mg of sample was placed in a tared mesh stainless steel basket under ambient conditions. The sample was loaded and unloaded at 40% RH and 25° C. (typical room conditions). A moisture sorption isotherm was performed as outlined below (two scans giving one complete cycle). The standard isotherm was performed at 25° C. at 10% RH intervals over a 0%-90% RH range. Data analysis was carried out using Microsoft Excel using DVS Analysis Suite v6.2 (or 6.1 or 6.0). The sample was recovered after completion of the isotherm and re-analyzed by XRPD.

Compound	thermal stability [1]	stability and solubility when compared to the HCl salt [2]	Solubility in FeSSiF [3] [µg/mL]	XRPD of residue [3]	Stability post-storage at 40° C./75% RH [4]	solubility at 24 h ([3]; 25 °C, pH 4.9, fessif, thermodynamic from solid) [µg/mL]	solubility at 24 h ([3]; pH 4.9, thermodynamic from solid) [µg/mL]	uptake at 90% RH by GVS [5] [%]	Stability after 14 days storage at 40° C./75% RH ([4]; 14 days, confirmed by XRPD)
COc1ccc(-c2c(-c3ccc(C#N)c(F)c3)nc(N3CCC(N)CC3)n(C)c2=O)cc1F [SO4 1, 4-[2-(4-aminopiperidin-1-yl)-5-(3-fluoro-4-methoxyphenyl)-1-methyl-6-oxo-1,6-dihydropyrimidin-4-yl]-2-fluorobenzonitrile]	good thermal stability	improved stability and solubility	720 (≈ 1590 µM)	Amorphous	No form change				
COc1ccc(-c2c(-c3ccc(C#N)c(F)c3)nc(N3CCC(N)CC3)n(C)c2=O)cc1F [BSA 1, 4-[2-(4-aminopiperidin-1-yl)-5-(3-fluoro-4-methoxyphenyl)-1-methyl-6-oxo-1,6-dihydropyrimidin-4-yl]-2-fluorobenzonitrile]	good thermal stability	improved stability and solubility	840 (≈ 1860 µM)	BSA 1 - poor	No form change				
COc1ccc(-c2c(-c3ccc(C#N)c(F)c3)nc(N3CCC(N)CC3)n(C)c2=O)cc1F [BA 1, 4-[2-(4-aminopiperidin-1-yl)-5-(3-fluoro-4-methoxyphenyl)-1-methyl-6-oxo-1,6-dihydropyrimidin-4-yl]-2-fluorobenzonitrile]	good thermal stability	improved stability and solubility	880 (≈ 1950 µM)	Poor crystallinity	No significant				
COc1ccc(-c2c(-c3ccc(C#N)c(F)c3)nc(N3CCC(N)CC3)n(C)c2=O)cc1F.Cl [HCL 1, 4-[2-(4-aminopiperidin-1-yl)-5-(3-fluoro-4-methoxyphenyl)-1-methyl-6-oxo-1,6-dihydropyrimidin-4-yl]-2-fluorobenzonitrile hydrochloride]				Amorphous	Extra peaks observed	740	750	14	Partial crystallization of a new form
COc1ccc(-c2c(-c3ccc(C#N)c(F)c3)nc(N3CCC(N)CC3)n(C)c2=O)cc1F [MSA 1, 4-[2-(4-aminopiperidin-1-yl)-5-(3-fluoro-4-methoxyphenyl)-1-methyl-6-oxo-1,6-dihydropyrimidin-4-yl]-2-fluorobenzonitrile]	good thermal stability	improved stability and solubility	1010 (≈ 2240 µM)	Largely amorphous	No form change				
COc1ccc(-c2c(-c3ccc(C#N)c(F)c3)nc(N3CCC(N)CC3)n(C)c2=O)cc1F [PHOA 1, 4-[2-(4-aminopiperidin-1-yl)-5-(3-fluoro-4-methoxyphenyl)-1-methyl-6-oxo-1,6-dihydropyrimidin-4-yl]-2-fluorobenzonitrile]	good thermal stability	improved stability and solubility	740 (≈ 1640 µM)	Amorphous	No form change				
COc1ccc(-c2c(-c3ccc(C#N)c(F)c3)nc(N3CCC(N)CC3)n(C)c2=O)cc1F [pTSA 1, 4-[2-(4-aminopiperidin-1-yl)-5-(3-fluoro-4-methoxyphenyl)-1-methyl-6-oxo-1,6-dihydropyrimidin-4-yl]-2-fluorobenzonitrile]	good thermal stability	improved stability and solubility	870 (≈ 1930 µM)	pTSA 1	No form change				
